From US9708336B2, “Metallo-beta-lactamase inhibitors” (priority 2014, dated 2017)
Where two headings read alike, the source gives them in different places.

Assays:
[1] = test system: Serratia marcescens expressing IMP-1 (CL5741); experiment: Antibiotic potentiation activity: synergistic concentration (MITC95) with imipenem, OD600 growth; assay type: cell-based; details: for Serratia marcescens expressing IMP-1 (CL5741) MITC95: concentration giving 95% inhibition of bacterial growth
Method in brief: (§1)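 Clinical MBL-producing strains (E. coli NDM-1, S. marcescens IMP-1, K. pneumoniae VIM-1) from overnight plates were diluted 1:100 into 1.1×CAMHB. Compound was tested with imipenem at 4 μg/ml (optionally 1 μg/ml) or without it. After 22–24 h at 35 °C, growth was read as OD600.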

[2] = test system: Escherichia coli expressing NDM-1 (CLB30016); experiment: as above; assay type: cell-based; details: for Escherichia coli expressing NDM-1 (CLB 30016) MITC95: concentration giving 95% inhibition of bacterial growth
Method in brief: as §1

[3] = test system: Klebsiella pneumoniae expressing VIM-1 (IHMA599644); experiment: as above; assay type: cell-based; details: for Klebsiella pneumoniae expressing VIM-1 (IHMA 599644) MITC95: concentration giving 95% inhibition of bacterial growth
Method in brief: as §1

VIM-1 = VIM-1 (Pseudomonas aeruginosa (strain ATCC 15692 / DSM 22644 / CIP 104116 / JCM 14847 / LMG 12228 / 1C / PRS 101 / PAO1), UniProt A0A0F7KYQ8); experiment: Enzyme activity: determination of IC50, fluorescence assay with CCF2-FA substrate (VIM-1); assay type: biochemical
IMP-1 = IMP-1 (Serratia marcescens, UniProt P52699); experiment: biochemical; assay type: biochemical; details: read-out: IMP-1 IC50
NDM-1 = NDM-1 (Klebsiella pneumoniae, UniProt C7C422); experiment: biochemical; assay type: biochemical; details: read-out: NDM-1 IC50
[4] = fluorescence assay with CCF2-FA substrate, read-out: VIM-1 IC50
[5] = fluorescence assay with CCF2-FA substrate
[6] = Serratia marcescens CL5741 (IMP-1), 95% growth inhibition
[7] = (CLB30016, NDM-1), 95% growth inhibition
[8] = Klebsiella pneumoniae IHMA599644 (VIM-1), 95% growth inhibition
[9] = VIM-1 enzyme, CCF2-FA substrate, read-out: VIM-1 IC50
[10] = IMP-1 enzyme, CCF2-FA substrate
[11] = NDM-1 enzyme, CCF2-FA substrate
[12] = Serratia marcescens expressing IMP-1 (CL5741), 95% growth inhibition
[13] = Escherichia coli expressing NDM-1 (CLB30016), 95% growth inhibition
[14] = Klebsiella pneumoniae expressing VIM-1 (IHMA599644), 95% growth inhibition
[15] = VIM-1 enzyme, CCF2-FA fluorescence assay, read-out: VIM-1 IC50
[16] = IMP-1 enzyme, CCF2-FA fluorescence assay
[17] = NDM-1 enzyme, CCF2-FA fluorescence assay
[18] = VIM-1 IC50, VIM-1 enzyme, CCF2-FA fluorescence assay
[19] = CL5741 (IMP-1), 95% inhibition of bacterial growth
[20] = CLB30016 (NDM-1), 95% inhibition of bacterial growth
[21] = IHMA599644 (VIM-1), 95% inhibition of bacterial growth
[22] = VIM-1 IC50, VIM-1 enzyme, CCF2-FA substrate

Chain of IMP-1 (P52699 whole entry, looked up): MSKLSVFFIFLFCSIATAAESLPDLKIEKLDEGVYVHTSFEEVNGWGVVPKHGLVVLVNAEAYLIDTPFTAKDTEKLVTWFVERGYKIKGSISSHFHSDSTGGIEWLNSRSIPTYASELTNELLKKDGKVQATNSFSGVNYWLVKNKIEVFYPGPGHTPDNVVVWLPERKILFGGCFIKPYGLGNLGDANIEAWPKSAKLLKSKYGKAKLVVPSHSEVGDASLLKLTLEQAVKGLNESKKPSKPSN
Chain of NDM-1 (C7C422 whole entry, looked up, species assumed): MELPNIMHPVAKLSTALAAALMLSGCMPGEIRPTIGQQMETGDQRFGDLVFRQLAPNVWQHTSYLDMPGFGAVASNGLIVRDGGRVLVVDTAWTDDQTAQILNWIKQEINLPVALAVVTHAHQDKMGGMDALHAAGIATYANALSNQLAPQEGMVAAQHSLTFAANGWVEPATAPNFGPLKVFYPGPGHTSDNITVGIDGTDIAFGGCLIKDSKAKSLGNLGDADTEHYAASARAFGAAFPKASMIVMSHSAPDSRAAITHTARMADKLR

Structure (SMILES) | IC50 (IMP-1; [5]) [nM] | IC50 (NDM-1; [5]) [nM] | Serratia marcescens MITC95 [1, 6] [µM] | Escherichia coli MITC95 [2, 7] [µM] | Klebsiella pneumoniae MITC95 [3, 8] [µM] | IC50 (VIM-1; [9]) [nM] | IC50 (IMP-1; [10]) [nM] | IC50 (NDM-1; [11]) [nM] | further results
CC(C)Cc1cccc(S(N)(=O)=O)c1-c1nn[nH]n1 [Example 167, 3-isobutyl-2-(2H-tetrazol-5-yl)benzenesulfonamide] | 260 | 12.4 |  |  |  |  |  |  | Serratia marcescens expressing IMP-1 (CL5741) MITC95 [1]: 9.375 µM; Escherichia coli expressing NDM-1 (CLB 30016) MITC95 [2]: 1.563 µM; Klebsiella pneumoniae expressing VIM-1 (IHMA 599644) MITC95 [3]: 200 µM; IC50 (VIM-1; [4]): 1030 nM
CC(N[C@H]1CC[C@H](c2ccc(C(F)(F)F)c(S(N)(=O)=O)c2-c2nnn[nH]2)CC1)C1CCNCC1 (stereo partly drawn) [Example 683, 3-{4-[(1-piperidin-4-ylethyl)amino]cyclohexyl}-2-(1H-tetrazol-5-yl)-6-(trifluoromethyl)benzene sulfonamide] |  |  | 12.5 | 3.125 | 50 | 28.1 | 154 | 31.5 | 
NS(=O)(=O)c1cccc(-c2ccc(CN3CCOCC3)cc2)c1-c1nnn[nH]1 [Example 341, 4′-(morpholin-4-ylmethyl)-2-(1H-tetrazol-5-yl)biphenyl-3-sulfonamide] |  |  |  |  |  |  |  |  | Serratia marcescens MITC95 [1, 12]: 1.172 µM; Escherichia coli MITC95 [2, 13]: 0.7813 µM; Klebsiella pneumoniae MITC95 [3, 14]: >200 µM; IC50 (VIM-1; [15]): 786 nM; IC50 (IMP-1; [16]): 22.1 nM; IC50 (NDM-1; [17]): 2.94 nM
Nc1ccc(-c2ccc(C(F)(F)F)c(S(N)(=O)=O)c2-c2nn[nH]n2)cn1 [Example 265, 3-(6-aminopyridin-3-yl)-2-(2H-tetrazol-5-yl)-6-(trifluoromethyl)benzenesulfonamide] |  |  |  |  |  |  |  |  | Serratia marcescens MITC95 [1, 12]: 0.4271 µM; Escherichia coli MITC95 [2, 13]: 0.125 µM; Klebsiella pneumoniae MITC95 [3, 14]: 4.775 µM; IC50 (VIM-1; [18]): 1.26 nM; IC50 (IMP-1; [16]): 6.93 nM; IC50 (NDM-1; [17]): 2.65 nM
Nc1nnc(C2CCN(c3ccc(C(F)(F)F)c(S(N)(=O)=O)c3-c3nnn[nH]3)CC2)s1 [Example 764, 3-[4-(5-amino-1,3,4-thiadiazol-2-yl)piperidin-1-yl]-2-(1H-tetrazol-5-yl)-6-(trifluoromethyl) benzenesulfonamide] | 68.7 | 273 |  |  |  |  |  |  | Serratia marcescens MITC95 [1, 19]: 50 µM; Escherichia coli MITC95 [2, 20]: 100 µM; Klebsiella pneumoniae MITC95 [3, 21]: >200 µM; IC50 (VIM-1; VIM-1 IC50, fluorescence assay with CCF2-FA substrate): 27.7 nM
Nc1nc2cc(F)cc(-c3ccc(C(F)(F)F)c(S(N)(=O)=O)c3-c3nnn[nH]3)c2[nH]1 [Example 566, 3-(2-amino-5-fluoro-1H-benzo[d]imidazol-7-yl)-2-(1H-tetrazol-5-yl)-6-(trifluoromethyl)benzenesulfonamide] |  |  | 3.125 | 0.7813 | 3.125 | 0.508 | 2.68 | 0.233 | 
NCC1CN(C2CCN(c3ccc(C(F)(F)F)c(S(N)(=O)=O)c3-c3nnn[nH]3)CC2)C1 [Example 762, 3-{4-[3-(aminomethyl)azetidin-1-yl]piperidin-1-yl}-2-(1H-tetrazol-5-yl)-6-(trifluoromethyl) benzenesulfonamide] | 123 | 73.2 |  |  |  |  |  |  | Serratia marcescens MITC95 [1, 19]: 6.25 µM; Escherichia coli MITC95 [2, 20]: 3.125 µM; Klebsiella pneumoniae MITC95 [3, 21]: 6.25 µM; IC50 (VIM-1; [4]): 14.2 nM
NS(=O)(=O)c1cccc(C2CCCCC2)c1-c1nnn[nH]1 [Example 151, 3-cyclohexyl-2-(1H-tetrazol-5-yl)benzenesulfonamide] | 31.8 | 1.25 |  |  |  |  |  |  | Serratia marcescens expressing IMP-1 (CL5741) MITC95 [1]: 1.563 µM; Escherichia coli expressing NDM-1 (CLB 30016) MITC95 [2]: 1.172 µM; Klebsiella pneumoniae expressing VIM-1 (IHMA 599644) MITC95 [3]: 37.5 µM; IC50 (VIM-1; [4]): 31.5 nM
NS(=O)(=O)c1c(C(F)(F)F)ccc(NC2(C3CCNC3)CC2)c1-c1nnn[nH]1 (stereo not drawn) [Example 777, 3-[(1-pyrrolidin-3-ylcyclopropyl)amino]-2-(1H-tetrazol-5-yl)-6-(trifluoromethyl) benzenesulfonamide] | 51.3 | 23.3 |  |  |  |  |  |  | Serratia marcescens MITC95 [1, 19]: 12.5 µM; Escherichia coli MITC95 [2, 20]: 12.5 µM; Klebsiella pneumoniae MITC95 [3, 21]: 6.25 µM; IC50 (VIM-1; [4]): 6.73 nM
NS(=O)(=O)c1c(C[C@H]2CC[C@@H](N)CC2)ccc(-c2ccc(C3CCNC3)cc2)c1-c1nnn[nH]1 (stereo partly drawn) [Example 583, 4-(((1s,4s)-4-aminocyclohexyl)methyl)-4′-(pyrrolidin-3-yl)-2-(1H-tetrazol-5-yl)-[1,1′-biphenyl]-3-sulfonamide] |  |  | 6.25 | 3.125 | 6.25 | 23.6 | 12 | 6.53 | 
NS(=O)(=O)c1c(CC2(F)CCNCC2)ccc(-c2ccc(C3CCNCC3)cc2)c1-c1nn[nH]n1 [Example 464, 4-((4-fluoropiperidin-4-yl)methyl)-4′-(piperidin-4-yl)-2-(2H-tetrazol-5-yl)-[1,1′-biphenyl]-3-sulfonamide] |  |  |  |  |  |  |  |  | Serratia marcescens MITC95 [1, 12]: 1.563 µM; Escherichia coli MITC95 [2, 13]: 0.7813 µM; Klebsiella pneumoniae MITC95 [3, 14]: 1.563 µM; IC50 (VIM-1; [15]): 1.95 nM; IC50 (IMP-1; [16]): 18.7 nM; IC50 (NDM-1; [17]): 3.82 nM
Nc1ccc2cccc(-c3ccc(C(F)(F)F)c(S(N)(=O)=O)c3-c3nn[nH]n3)c2n1 [Example 554, 3-(2-amino-8-quinolyl)-2-(2H-tetrazol-5-yl)-6-(trifluoromethyl)benzenesulfonamide] |  |  | 1.563 | 3.125 | 3.125 | 0.363 | 0.818 | 0.115 | 
NS(=O)(=O)c1cccc(-c2ccc(CNCCc3nc[nH]n3)cc2)c1-c1nnn[nH]1 [Example 338, 4′-(((2-(1H-1,2,4-triazol-3-yl)ethyl)amino)methyl)-2-(1H-tetrazol-5-yl)-[1,1′-biphenyl]-3-sulfonamide] |  |  |  |  |  |  |  |  | Serratia marcescens MITC95 [1, 12]: 3.125 µM; Escherichia coli MITC95 [2, 13]: 0.5859 µM; Klebsiella pneumoniae MITC95 [3, 14]: 25 µM; IC50 (VIM-1; [18]): 152 nM; IC50 (IMP-1; [16]): 75.4 nM; IC50 (NDM-1; [17]): 4.53 nM
NC1CC(N[C@H]2CC[C@H](c3ccc(C(F)(F)F)c(S(N)(=O)=O)c3-c3nnn[nH]3)CC2)C1 (stereo partly drawn) [Example 694, 3-{4-[(3-aminocyclobutyl)amino]cyclohexyl}-2-(1H-tetrazol-5-yl)-6-(trifluoromethyl)benzene sulfonamide] |  |  | 1.563 | 0.3906 | 1.563 |  | 18.6 | 4.84 | IC50 (VIM-1; [22]): 2.46 nM
NC1CCC(N[C@H]2CC[C@H](c3ccc(C(F)(F)F)c(S(N)(=O)=O)c3-c3nnn[nH]3)CC2)C1 (stereo partly drawn) [Example 703, 3-{4-[(3-aminocyclopentyl)amino]cyclohexyl}-2-(1H-tetrazol-5-yl)-6-(trifluoromethyl)benzene sulfonamide] |  |  | 3.125 | 0.3906 | 12.5 |  | 38 | 6.14 | IC50 (VIM-1; [22]): 8.38 nM
Nc1nc2cccc(-c3ccc(C(F)(F)F)c(S(N)(=O)=O)c3-c3nnn[nH]3)c2[nH]1 [Example 551, 3-(2-amino-3H-benzimidazol-4-yl)-2-(1H-tetrazol-5-yl)-6-(trifluoromethyl)benzenesulfonamide] |  |  | 0.7813 | 0.3906 | 1.563 | 0.26 | 3.8 | 0.142 | 
